Experimental data reported in patent US12336986B2, “Treatment and prevention of ocular neurodegenerative disorder” (The Jackson Laboratory, priority 2015, dated 2025).
“Also recorded” adds a separate entry of the source.

Legend:
DBA/2J (D2) mice [1] = assay: Pattern electroretinography (PERG) in D2 mice; assay type: in vivo, mouse; conditions: for visual function, PERG amplitude: D2 mice
Method: PERG was recorded subcutaneously from the snout as previously reported. Briefly: patterned stimuli (gratings of 0.05 cycles/degree, 100% contrast) generated on LED panels were presented at each eye separately with slight different frequencies around 1 Hz. Waveforms were retrieved using an asynchronous averaging method (Chou et al., Invest Ophthalmol Vis Sci 55, 2469-2475, 2014).
Mice were anaesthetized using ketamine/xylazine (Savinova et al., BMC Genet 2, 12, 2001) and body temperature maintained at 37° C. on a feedback-controlled heated stage monitored by rectal thermometer.

[2] = cited from earlier work
[3] = test system: mouse model for EAE, ALS, RRMS; conditions: US 2006-0211744 A1, RRMS mouse models; cited from earlier work
D2 retinas = assay: Metabolic phenotyping of retina: total NAD, NAD(t) (NAD+/NADH); assay type: in vivo, mouse
Method: We performed additional metabolic profiling of neural retinas from 4-, 9-, and 12-months old D2 and D2-Gpnmb^+ eyes. Metabolic profiling was performed using targeted assays following the manufacturers recommendations. The following metabolites were profiled: NAD+/NADH (i.e. total NAD, NAD(t)), GSH/GSSG (i.e. total glutathione, glutathione(t)), and pyruvate.
For GSH/GSSO and NAD^+/NADH quantification retinas were dissociated (as above) and compounds measured following the manufacturer's instructions (GSH/GSSG, Cayman Chemical; NAD^+/NADH, Biovision). Results were calculated according to the standard curve generated by using standards from the kits. Final metabolite concentrations for each samples were normalized to total protein concentration measured by Bradford assay.

DBA/2J (D2) mice [4] = assay: Clinical phenotyping: intraocular pressure (IOP) and iris disease in D2 mice; assay type: in vivo, mouse
Method: IOP elevation in D2 mice is subsequent to a pigment dispersing iris disease. In all experiments, the progression of the iris disease and intraocular pressure in mutant or drug-treated mice was compared to control D2 mice as previously described (John et al., Invest Ophthalmol Vis Sci 39, 951-962, 1998). In each experiment, iris disease and intraocular pressure were assessed.
Iris disease was assessed at two-month intervals starting at 6 months of age until experiment completion.
Intraocular pressure was measured at 45-day intervals beginning at 8.5-9 month until experiment completion.

SNAP-25 = assay: Synapse loss (SNAP-25 staining) in D2 retinas; assay type: in vivo, mouse; conditions: D2 mice, NAM 550 mg/kg/day
Method: For immunofluorescence staining, mice were euthanized by cervical dislocation, their eyes enucleated and placed in 4% PFA ON. Retinas were dissected and flat-mounted onto slides, permeabilized with 0.1% Triton-X for 15 mins, blocked with 2% BSA in PBS and stained ON at RT in primary antibody (see below for list of antibodies).
After primary antibody incubation, retinas were washed 5 times in PBS, stained for 4 hrs at RT with secondary antibody. Slides were then washed a further 5 times with PBS, stained with DAPI for 15 mins, mounted with fluoromount, coverslipped and sealed with nail-polish.
For retinal sections, eyes were cryoprotected in 30% sucrose ON, frozen in OCT and cryosectioned at 18 μm. Slides were warmed to room temperature and the procedure above was followed. Retinas were imaged on a Zeiss AxioObserver for low resolution counts. Retinal sections were imaged on a Leica SP8 far higher resolution images.

Compound: NC(=O)c1cccnc1 [NAM, nicotinamide]
- PERG amplitude (DBA/2J (D2) mice [1]; D2 Wld^S mice, NAM 550 mg/kg/day): additional recovery of PERG amplitude
- visual function, PERG amplitude (DBA/2J (D2) mice [1]; NAM^Hi 2,000 mg/kg/day): protect
- visual function, PERG amplitude (DBA/2J (D2) mice [1]; NAM^Lo 550 mg/kg/day or pyruvate 500 mg/kg/day): restored; also recorded: protect PERG even in aged mice
- doses with an incidence of hepatotoxicity ([2]; humans, attributed to impurities in older preparations): > 4 grams NAM per day
- cases of jaundice reported ([2]; survey of 6000 patients on high doses): 3
- neural degeneration [3]: reduces neural degeneration
- NAD(t) levels in retina (D2 retinas; D2 Wld^S mice treated with NAM 550 mg/kg/day): synergistic; also recorded: additional benefit
- NAD(t) levels in retina (D2 retinas; D2 mice, NAM 550 mg/kg/day in drinking water, through to 12-month): prevented the decline of NAD levels; also recorded: restored; also recorded: increased
- IOP (DBA/2J (D2) mice [4]; NAM 550 mg/kg/d): did not alter IOP; also recorded: IOP was not altered
- degree of IOP elevation (DBA/2J (D2) mice [4]; NAM 2000 mg/kg/d): lessens the degree of IOP elevation
- synapse loss in early glaucoma (SNAP-25 staining) (SNAP-25): protected against early synapse loss; also recorded: prevents synapse loss
